Laboratory results from ChEMBL document CHEMBL1201862, “PubChem BioAssay data set” (2004).
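Where inhibition never reached the appropriate level, the endpoint shown equals the highest concentration tested. Otherwise, values were interpolated linearly from a five-concentration, 48-hour dose response in 96-well plates. At the GI50, growth is halved.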 Active and inactive are the calls of the source. Cut-off read from the data, not from the text of the source: active = GI50 up to about 1.1 µM and inactive = higher.

How the values were obtained:
Assay in all cases: DTP human tumour cell line panel, 48 h
786-0 = system: 786-0
NCI/ADR-RES = system: NCI/ADR-RES
A498 = system: A498
SK-MEL-2 = system: SK-MEL-2
MDA-MB-435 = system: MDA-MB-435
SNB-75 = system: SNB-75
EKVX = system: EKVX
TK-10 = system: TK-10
DU-145 = system: DU-145
T47D = system: T47D
SR = system: SR
Malme-3M = system: Malme-3M
MCF7 = system: MCF7
NCI-H23 = system: NCI-H23
Hs-578T = system: Hs-578T
MDA-N = system: MDA-N
NCI-H226 = system: NCI-H226
NCI-H522 = system: NCI-H522
RPMI-8226 = system: RPMI-8226

| Structure (SMILES) | GI50 (786-0) | GI50 (NCI/ADR-RES) | GI50 (A498) | GI50 (SK-MEL-2) | GI50 (MDA-MB-435) | GI50 (SNB-75) | GI50 (EKVX) | GI50 (TK-10) | GI50 (DU-145) | GI50 (T47D) | GI50 (SR) | GI50 (Malme-3M) | GI50 (MCF7) | GI50 (NCI-H23) | GI50 (Hs-578T) | GI50 (MDA-N) | GI50 (NCI-H226) | GI50 (NCI-H522) | GI50 (RPMI-8226) |
| --- | --- | --- | --- | --- | --- | --- | --- | --- | --- | --- | --- | --- | --- | --- | --- | --- | --- | --- | --- |
| O=C1Nc2ccccc2/C1=N/NC(=S)Nc1ccccc1Cl | 1.77 µM (inactive) | 0.384 µM (active) | 7.96 µM (inactive) | 13.8 µM (inactive) | 10.8 µM (inactive) | 2.82 µM (inactive) | 4.34 µM (inactive) | 2.1 µM (inactive) | 9.27 µM (inactive) | 11.6 µM (inactive) | < 0.01 µM (active) | 3.44 µM (inactive) | 3.4 µM (inactive) | 8.71 µM (inactive) | 2.67 µM (inactive) | 20.6 µM (inactive) | 10.1 µM (inactive) | 11.9 µM (inactive) | – |
| O=C1c2ccccc2C(=O)c2c(OCCOCCO)cccc21 | > 100 µM (inactive) | > 100 µM (inactive) | – | > 100 µM (inactive) | > 100 µM (inactive) | > 100 µM (inactive) | > 100 µM (inactive) | 53.6 µM (inactive) | > 100 µM (inactive) | 49.4 µM (inactive) | 66.7 µM (inactive) | 74.3 µM (inactive) | 74.6 µM (inactive) | > 100 µM (inactive) | 20.5 µM (inactive) | – | – | 52.6 µM (inactive) | – |
| COc1ccc(C(CC(=O)c2cccs2)C(=O)c2ccc3c(c2)OCO3)cc1 (stereo not given) | – | > 100 µM (inactive) | 72.1 µM (inactive) | – | > 100 µM (inactive) | > 100 µM (inactive) | > 100 µM (inactive) | > 100 µM (inactive) | > 100 µM (inactive) | 69.5 µM (inactive) | – | 97.7 µM (inactive) | > 100 µM (inactive) | > 100 µM (inactive) | > 100 µM (inactive) | > 100 µM (inactive) | – | – | 59.8 µM (inactive) |
| CCOP(=O)(OCC)C(Cc1ccc(OC)c(OC)c1)N=C(c1ccccc1)c1ccccc1 (stereo not given) | – | 44.7 µM (inactive) | 56.8 µM (inactive) | – | 71 µM (inactive) | 27.5 µM (inactive) | – | 40.8 µM (inactive) | 37.2 µM (inactive) | 20.5 µM (inactive) | 6.84 µM (inactive) | – | 24.7 µM (inactive) | 41.6 µM (inactive) | – | 59.8 µM (inactive) | 88.1 µM (inactive) | 22.8 µM (inactive) | 18.8 µM (inactive) |
| COc1ccc(OC)c2c1C(=O)C(Cl)=C(N1CCN(CCOCCO)CC1)C2=O | 5.78 µM (inactive) | 26.5 µM (inactive) | 16.9 µM (inactive) | – | 14.4 µM (inactive) | 15.9 µM (inactive) | 18.9 µM (inactive) | 19 µM (inactive) | 18.6 µM (inactive) | 4.65 µM (inactive) | 3.21 µM (inactive) | 19.8 µM (inactive) | 6.12 µM (inactive) | 7.6 µM (inactive) | 16.1 µM (inactive) | – | 16.7 µM (inactive) | 4.3 µM (inactive) | 2.94 µM (inactive) |
| COC(=O)C1=COC2OC3CC1C2C(C)O3 (stereo not given) | > 100 µM (inactive) | > 100 µM (inactive) | > 100 µM (inactive) | > 100 µM (inactive) | > 100 µM (inactive) | – | > 100 µM (inactive) | > 100 µM (inactive) | > 100 µM (inactive) | > 100 µM (inactive) | > 100 µM (inactive) | > 100 µM (inactive) | > 100 µM (inactive) | > 100 µM (inactive) | > 100 µM (inactive) | > 100 µM (inactive) | > 100 µM (inactive) | > 100 µM (inactive) | > 100 µM (inactive) |
| CN1C(=O)C2C=C3CCCCC3=CC2N(C)C1=O (stereo not given) | – | > 100 µM (inactive) | > 100 µM (inactive) | > 100 µM (inactive) | > 100 µM (inactive) | > 100 µM (inactive) | 77.4 µM (inactive) | > 100 µM (inactive) | > 100 µM (inactive) | > 100 µM (inactive) | > 100 µM (inactive) | > 100 µM (inactive) | > 100 µM (inactive) | > 100 µM (inactive) | > 100 µM (inactive) | > 100 µM (inactive) | > 100 µM (inactive) | > 100 µM (inactive) | > 100 µM (inactive) |
| COCO[C@@H]1C[C@H]2C(O)Nc3ccccc3C(=O)N2C1 (stereo not given in full) | – | > 100 µM (inactive) | > 100 µM (inactive) | > 100 µM (inactive) | > 100 µM (inactive) | > 100 µM (inactive) | > 100 µM (inactive) | > 100 µM (inactive) | > 100 µM (inactive) | > 100 µM (inactive) | > 100 µM (inactive) | – | > 100 µM (inactive) | > 100 µM (inactive) | > 100 µM (inactive) | > 100 µM (inactive) | > 100 µM (inactive) | – | > 100 µM (inactive) |
